Data: patent US20250340529A1, “Heterocyclic Compounds as Immunomodulators of PD-L1 Interactions” (Ascletis BioScience Co., Ltd, priority 2021, published 2025)

Legend:
[1] = target: extracellular domains of PD-L1 (Homo sapiens (Human), UniProt Q9NZQ7); test: PD-L1 dimerization (biochemical protein-protein interaction assay); conditions: PDL1-Eu and PDL1-A2, 25° C., 120 min
Method: Compounds were tested in biochemical protein-protein interaction assays to determine if they can specifically dimerize the extracellular domains of PD-L1. • (1) Dilute cpd 1:3 in succession in DMSO for each column for 10±0 pts (refer to dilution plate map) • (2) Transfer 0.2 μL cpds solution in each row to 384 assay plate using Echo, each column containing 2 replicates (refer to assay plate map). • (3) Add 20 μL prepared mixture include PDL1-Eu and PDL1-A2 solution to assay plate, centrifuge at 1000 rpm for 1 min. • (4) Incubate at 25° C. for 120 min. • (5) Read fluorescence signal on Envision 2104 plate reader. • (6) Read the Ratio (665 nm/615 nm) signal on Envision. • (7) Analyze the raw data using the equation (V. Data analysis)

[2] = system: Hep3B-OS8-hPDL1 cells and CD3+ T cells; test: Hep3B-OS8-hPDL1 and T cells co-culture assay (IFN-γ by ELISA); type: cell-based; conditions: Homo sapiens, T-cell, 72 hours, read-out: Tumor and T Cell EC50 (nm)
Method: a. Hep3B-OS8-hPDL1 and T Cells Co-Culture Assay
• 1. Hep3B-OS8-hPDL1 cells were cultured in 1640 medium supplemented with 10% fetal bovine serum, 1% penicillin and streptomycin, in which 100 μg/mL G418 and Hygromycin B were also added. • 2. Hep3B-OS8-hPDL1 cells were harvested and treated with 10 μg/mL mitomycin C at 37° C. for 1.5 h, and the cells were then washed thoroughly with PBS for four times. • 3. Cells were re-suspended with RPMI 1640 medium containing 10% FBS and the cell density was adjusted to 5E5 cells/mL. • 4. Cells were seeded into 96-well flat bottom plate (2.5E4 cells/50 μL/well). b. CD3+ T Cells Isolation (30 mL Blood) • 5. The human blood sample from an individual donor is diluted by the same volume of sterile PBS, for instance add 25 mL sterile PBS into 25 mL fresh whole blood and mix sufficiently by gentle shake. • 6. Transfer 15 mL Lymphoprep medium into a new 50 mL centrifuge tube. • 7. Add the diluted blood sample as soft as possible onto the surface of the Ficoll medium to make sure there is a clear dividing line between the two liquids, and the volume ratio between Ficoll and diluted blood (30 mL) is 1:2. • 8. Move the tube gently to centrifuge, at 1000×g, 25 min, 20° C., with the acceleration (5) and Min deceleration (0) settings during the centrifugation. • 9. Four interfaces in all could be observed after the centrifugation, which are layers of plasma, mononuclear cells, the Ficoll medium and RBCs from top to bottom, and move the tube as gently as possible so as keep the four interfaces separated. Absorb and transfer the second layer of mononuclear cells into another new sterile centrifuge tube carefully, and absorb certain volume of plasma instead of the Ficoll medium if inevitable. • 10. Add sterile PBS of the three times the volume of PBMCs in the tube with PBMC. • 11. Wash the cells twice with 5-10 mL PBS before cell counting with cytometer. Centrifuge at 350×g, 10 min, 20° C. With the acceleration (5) and deceleration (5) settings during the centrifugation. • 12. Resuspend the cells with recommended medium and adjust the density of the PBMCs to the final concentration of 5E7 cells/mL. • 13. Isolate CD3+ T cells with EasySep™ Human T Cell Isolation Kit (STEMCELL Technologies #17951), and the cells were seeded into 96-well flat bottom plate (5E4 cells/100 μL/well). c. Compounds solutions preparation • 14. Prepare the Compounds dilutions in RPMI 1640 medium with 10% FBS according to the Layout. 15. Add compounds into each well in a volume of 50 μL. {3 compounds (GLC01-258, GLC01-269, GLC01-465) in 7 concentrations (0.03, 0.1, 0.3, 1, 3, 10 and 30 μM) and 6 compounds (GLC01-411, GLC01-292, GLC01-445, GLC01-475, GLC01-470 and GLC01-468) in the same concentration (1 μM)}. • 16. […]

Chain of extracellular domains of PD-L1 (Q9NZQ7 19-238): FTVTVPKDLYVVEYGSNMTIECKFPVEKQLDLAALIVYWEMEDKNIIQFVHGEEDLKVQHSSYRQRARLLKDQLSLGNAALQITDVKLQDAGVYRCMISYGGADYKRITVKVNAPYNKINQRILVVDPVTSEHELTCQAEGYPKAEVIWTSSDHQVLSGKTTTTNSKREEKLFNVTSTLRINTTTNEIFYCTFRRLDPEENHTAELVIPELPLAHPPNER

Row | Compound | EC50 [1] | EC50 [2]
1 | O=C(O)[C@H](CO)NCCN1C(=O)COc2cc(-c3cccc(-c4cccc(-c5ccc6c(c5)OCC(=O)N6CCN[C@@H](CO)C(=O)O)c4Cl)c3Cl)ccc21 [Compound 465] | 77.9 nM | 1.2 nM
2 | O=C1COc2cc(-c3cccc(-c4cccc(-c5ccc6c(c5)OCC(=O)N6C[C@H]5CCCN5)c4Cl)c3Cl)ccc2N1C[C@H]1CCCN1 [Compound 529] |  | 325 nM
